The nature of data set [1]: Toxicity against human type A red blood cells assessed as hemolytic activity after 1hr. The settings on record: read-out: HD50. Type of data set: cell-based, Erythrocyte.
Data set [2] is described as follows: Toxicity against human type A red blood cells assessed as hemolytic activity at 80 uM after 1 ht. The class given is cell-based, Erythrocyte. The settings on record: read-out: Activity.

Bridge positions count the residues as written; N and C are the ends. Peptide text beside a SMILES is read from it.

In the case of `CC(C)C[C@@H]1NC(=O)CNC(=O)[C@H](CC(N)=O)NC(=O)[C@H](CCCNC(=N)N)NC(=O)[C@H]([C@@H](C)O)NC(=O)[C@@H]2CSSC[C@@H]3NC(=O)[C@H]([C@@H](C)O)NC(=O)CNC(=O)CNC(=O)[C@H](C(C)C)NC(=O)[C@@H]4CSSC[C@H](NC(=O)[C@H]([C@@H](C)O)NC(=O)[C@H](CSSC[C@H](NC(=O)[C@H](C(C)C)NC(=O)[C@@H]5CCCN5C1=O)C(=O)NCC(=O)N[C@@H](CCC(=O)O)C(=O)N[C@@H]([C@@H](C)O)C(=O)N4)NC(=O)CNC(=O)[C@@H]1CCCN1C(=O)[C@H]([C@@H](C)O)NC(=O)[C@H](CC(N)=O)NC3=O)C(=O)N[C@@H](CO)C(=O)N[C@@H](Cc1c[nH]c3ccccc13)C(=O)N1CCC[C@H]1C(=O)N[C@@H](C(C)C)C(=O)N2` [KALATA B1], in data set [1], the HC50 at 1 h is 12.7 µM.
For `CC[C@H](C)[C@@H]1NC(=O)CNC(=O)[C@H](CC(N)=O)NC(=O)[C@H](Cc2ccc(O)cc2)NC(=O)[C@@H]2CSSC[C@@H]3NC(=O)[C@@H]4CCCN4C(=O)[C@H]([C@@H](C)CC)NC(=O)[C@H](Cc4c[nH]c5ccccc45)NC(=O)[C@H](C(C)C)NC(=O)[C@@H]4CSSC[C@H](NC(=O)[C@H](CO)NC(=O)[C@H](CSSC[C@H](NC(=O)[C@@H]5CCCN5C1=O)C(=O)N[C@@H](C)C(=O)N[C@@H](CCC(=O)O)C(=O)N[C@@H](CO)C(=O)N4)NC(=O)CNC(=O)[C@H](CC(C)C)NC(=O)[C@H](CC(C)C)NC(=O)[C@H](C)NC(=O)[C@H]([C@@H](C)O)NC(=O)[C@H](C(C)C)NC(=O)[C@H]([C@@H](C)O)NC3=O)C(=O)N[C@@H](CO)C(=O)N[C@@H](CC(N)=O)C(=O)N[C@@H](CC(N)=O)C(=O)N[C@@H](C(C)C)C(=O)N2` [cycloviolacin H4] (cyclo(AESCVWIPCTVTALLGCSCSNNVCYNGIPC); disulfide 4-19, 9-24, 17-30), the HC50 at 1 h in data set [1] amounted to 5.5 µM.
Turning to `CC[C@H](C)[C@@H]1NC(=O)[C@H]([C@@H](C)O)NC(=O)CNC(=O)CNC(=O)[C@H](CC(N)=O)NC(=O)[C@H]([C@@H](C)O)NC(=O)CNC(=O)[C@H](Cc2ccc(O)cc2)NC(=O)[C@@H]2CSSC[C@@H]3NC(=O)[C@H]([C@@H](C)O)NC(=O)CNC(=O)[C@H](CC(C)C)NC(=O)[C@H](Cc4ccccc4)NC(=O)[C@@H]4CSSC[C@H](NC(=O)[C@H](CO)NC(=O)[C@H](CSSC[C@H](NC(=O)[C@H](CC(=O)O)NC(=O)[C@H](Cc5ccccc5)NC1=O)C(=O)NCC(=O)N[C@@H](CCC(=O)O)C(=O)N[C@@H](CO)C(=O)N4)NC(=O)CNC(=O)[C@H](CCCCN)NC(=O)[C@H]([C@@H](C)O)NC(=O)[C@H](Cc1ccc(O)cc1)NC3=O)C(=O)NCC(=O)N[C@@H](CCC(=O)O)C(=O)N[C@@H](Cc1c[nH]c3ccccc13)C(=O)N[C@@H](CCCCN)C(=O)N[C@@H](CC(C)C)C(=O)N2` [TRICYCLON A] (cyclo(CFLGTCYTKGCSCGEWKLCYGTNGGTIFDCGES); disulfide 1-13, 6-19, 11-30), the hemolysis at 1 h, 80 µM in data set [2] amounted to 2%.

For the origin of these results see ChEMBL document CHEMBL1157218, “Cycloviolacin H4, a hydrophobic cyclotide from Viola hederaceae” (J Nat Prod, 2006).
